Laboratory results taken from patent US10738028B2, “Spiro three-membered ring, spiro five-membered ring peptide deformylase inhibitor and use thereof in antibacteria and anti-tumor” (priority 2016, dated 2020).

What was measured:
Type in all cases: cell-based
[1] = test system: Enterococcus faecalis (EFA); test: MIC, two-fold agar dilution (CLSI), clinical isolates
In short: (§1)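 Test samples were assayed by the CLSI-recommended two-fold agar dilution method, and the minimum inhibitory concentration against each tested strain was determined.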

[2] = test system: Enterococcus faecium (EFM); test: as above
In short: as §1

[3] = test system: Escherichia coli (including ESBLs, non-ESBLs); test: as above
In short: as §1

[4] = test system: Moraxella catarrhalis (BCA); test: as above
In short: as §1

[5] = test system: Streptococcus pneoumoniae (SPN); test: as above
In short: as §1

[6] = test system: methicillin-resistant Staphylococcus aureus (MRSA); test: as above
In short: as §1

[7] = test system: methicillin-resistant Staphylococcus epidermidis (MRSE); test: as above
In short: as §1

[8] = test system: methicillin-sensitive Staphylococcus aureus (MSSA); test: as above
In short: as §1

[9] = test system: methicillin-sensitive Staphylococcus epidermidis (MSSE); test: as above
In short: as §1

[10] = test system: HCT-116 colorectal cancer cell line; test: CCK-8 proliferation inhibition; conditions: concentration of 30 μM, 72 hours, CCK-8
In short: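 Cells were plated overnight at 2000 cells/well, then compound in culture medium was added at a range of final concentrations. After 72 hours in a CO2 incubator, medium was replaced with 1:10 CCK-8 solution for the read-out.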

[11] = test system: A549 lung cancer cell line; test: CCK-8 proliferation inhibition; conditions: concentration of 30 μM
In short: (§2)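 Plating at 2000 cells/well, then incubation overnight at 37° C. Next, a range of compound concentrations for 72 hours (control 1‰ DMSO). Finally, medium decanted and CCK-8 diluted 1:10 added.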

[12] = test system: BEL-7402 liver cancer cell line; test: CCK-8 proliferation inhibition; conditions: concentration of 30 μM
In short: as §2

[13] = test system: MGC-803 gastric cancer cell line; test: CCK-8 proliferation inhibition; conditions: Homo sapiens, MGC-803, 72 h, concentration of 30 μM
In short: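 Proliferation was measured with 1:10 diluted CCK-8 after a 72-hour incubation with the inhibitors at various final concentrations, using 1‰ DMSO as the control. Cells were plated at 2000 per well. Culture media contained 10% newborn bovine serum: 1640 for Jurkat and MGC-803, F12 for PC3, DMEM high glucose for MCF-7.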

CCCC[C@H](CC(=O)NO)C(=O)N1CC2(CC2)C[C@H]1C(=O)Nc1nc(C(F)(F)F)cs1 [Example 57]
Anti-bacterial activity (MIC), strain EFA 15-1 ([1]; clinical isolate EFA 15-1): 8 µg/mL | Anti-bacterial activity (MIC), strain EFA 15-2 ([1]; clinical isolate EFA 15-2): 8 µg/mL | Anti-bacterial activity (MIC), strain EFA 15-3 ([1]; clinical isolate EFA 15-3): 8 µg/mL | Anti-bacterial activity (MIC), strain EFA 15-4 ([1]; clinical isolate EFA 15-4): 8 µg/mL | Anti-bacterial activity (MIC), strain EFA 15-5 ([1]; clinical isolate EFA 15-5): 8 µg/mL | Anti-bacterial activity (MIC), strain EFA 15-6 ([1]; clinical isolate EFA 15-6): 8 µg/mL | Anti-bacterial activity (MIC), strain EFA 15-9 ([1]; clinical isolate EFA 15-9): 8 µg/mL | Anti-bacterial activity (MIC), strain EFM 15-1 ([2]; clinical isolate EFM 15-1): 1 µg/mL | Anti-bacterial activity (MIC), strain EFM 15-2 ([2]; clinical isolate EFM 15-2): 2 µg/mL | Anti-bacterial activity (MIC), strain EFM 15-3 ([2]; clinical isolate EFM 15-3): 0.25 µg/mL | Anti-bacterial activity (MIC), strain EFM 15-4 ([2]; clinical isolate EFM 15-4): 1 µg/mL | Anti-bacterial activity (MIC), strain EFM 15-5 ([2]; clinical isolate EFM 15-5): 0.5 µg/mL | Anti-bacterial activity (MIC), strain EFM 15-6 ([2]; clinical isolate EFM 15-6): 4 µg/mL | Anti-bacterial activity (MIC), strain ECO+ 15-1 ([3]; clinical isolate ECO+ 15-1): 32 µg/mL | Anti-bacterial activity (MIC), strain ECO+ 15-2 ([3]; clinical isolate ECO+ 15-2): > 32 µg/mL | Anti-bacterial activity (MIC), strain ECO+ 15-3 ([3]; clinical isolate ECO+ 15-3): > 32 µg/mL | Anti-bacterial activity (MIC), strain ECO+ 15-4 ([3]; clinical isolate ECO+ 15-4): > 32 µg/mL | Anti-bacterial activity (MIC), strain ECO− 15-1 ([3]; clinical isolate ECO− 15-1): > 32 µg/mL | Anti-bacterial activity (MIC), strain ECO− 15-2 ([3]; clinical isolate ECO− 15-2): > 32 µg/mL | Anti-bacterial activity (MIC), strain ECO− 15-3 ([3]; clinical isolate ECO− 15-3): > 32 µg/mL | Anti-bacterial activity (MIC), strain ECO− 15-4 ([3]; clinical isolate ECO− 15-4): > 32 µg/mL | Anti-bacterial activity (MIC), strain BCA 14-1 ([4]; clinical isolate BCA 14-1): 0.5 µg/mL | Anti-bacterial activity (MIC), strain BCA 14-4 ([4]; clinical isolate BCA 14-4): 0.5 µg/mL | Anti-bacterial activity (MIC), strain BCA 14-5 ([4]; clinical isolate BCA 14-5): 0.5 µg/mL | Anti-bacterial activity (MIC), strain BCA 14-6 ([4]; clinical isolate BCA 14-6): 1 µg/mL | Anti-bacterial activity (MIC), strain BCA 14-7 ([4]; clinical isolate BCA 14-7): 0.25 µg/mL | Anti-bacterial activity (MIC), strain BCA 14-8 ([4]; clinical isolate BCA 14-8): 0.25 µg/mL | Anti-bacterial activity (MIC), strain BCA 14-10 ([4]; clinical isolate BCA 14-10): 0.25 µg/mL | Anti-bacterial activity (MIC), strain SPN 16-2 ([5]; clinical isolate SPN 16-2): 2 µg/mL | Anti-bacterial activity (MIC), strain SPN 16-4 ([5]; clinical isolate SPN 16-4): 0.25 µg/mL | Anti-bacterial activity (MIC), strain MRSA 15-1 ([6]; clinical isolate MRSA 15-1): 0.5 µg/mL | Anti-bacterial activity (MIC), strain MRSA 15-2 ([6]; clinical isolate MRSA 15-2): 0.5 µg/mL | Anti-bacterial activity (MIC), strain MRSA 15-3 ([6]; clinical isolate MRSA 15-3): 0.5 µg/mL | Anti-bacterial activity (MIC), strain MRSA 15-4 ([6]; clinical isolate MRSA 15-4): 0.5 µg/mL | Anti-bacterial activity (MIC), strain MRSE 15-1 ([7]; clinical isolate MRSE 15-1): 0.125 µg/mL | Anti-bacterial activity (MIC), strain MRSE 15-2 ([7]; clinical isolate MRSE 15-2): 0.125 µg/mL | Anti-bacterial activity (MIC), strain MRSE 15-3 ([7]; clinical isolate MRSE 15-3): 0.125 µg/mL | Anti-bacterial activity (MIC), strain MRSE 15-7 ([7]; clinical isolate MRSE 15-7): 0.25 µg/mL | Anti-bacterial activity (MIC), strain MSSA 15-3 ([8]; clinical isolate MSSA 15-3): 0.5 µg/mL | Anti-bacterial activity (MIC), strain MSSA 15-4 ([8]; clinical isolate MSSA 15-4): 0.125 µg/mL | Anti-bacterial activity (MIC), strain MSSA 15-5 ([8]; clinical isolate MSSA 15-5): 0.125 µg/mL | Anti-bacterial activity (MIC), strain MSSA 15-6 ([8]; clinical isolate MSSA 15-6): 0.125 µg/mL | Anti-bacterial activity (MIC), strain MSSE 15-3 ([9]; clinical isolate MSSE 15-3): 0.25 µg/mL | Anti-bacterial activity (MIC), strain MSSE 15-4 ([9]; clinical isolate MSSE 15-4): 0.125 µg/mL | Anti-bacterial activity (MIC), strain MSSE 15-5 ([9]; clinical isolate MSSE 15-5): 0.125 µg/mL | Anti-bacterial activity (MIC), strain MSSE 15-6 ([9]; clinical isolate MSSE 15-6): 0.06 µg/mL | inhibition at 30 µM ([10]; Homo sapiens, HCT-116, 72 h, read-out: HCT116 inhibition rate/%): > 50% | HCT116 inhibition rate/% ([10]; 30 µM): 52% | inhibition at 30 µM ([11]; Homo sapiens, A549, 72 h): > 50% | Inhibition of proliferation, Lung cancer A549 ([11]; 72 hours, 30 µM): 52% | inhibition at 30 µM ([12]; Homo sapiens, Bel-7402, 72 h): > 50% | Inhibition of proliferation, Liver cancer BEL-7402 ([12]; 72 hours, 30 µM): 57% | inhibition at 30 µM [13]: 34%
